Where two headings read alike, the source gives them in different places.
Columns and labels:
Pin1 = molecular target: T1, Pin1 (Homo sapiens, UniProt Q13526); experiment: Evaluation of Pin1 enzyme inhibitory activity (Sensolyte Green Pin1 assay kit); assay type: biochemical
T1 construct: purchased Anaspec
Method in brief: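 Pin1 activity was measured with a fluorogenic kit assay (Sensolyte Green) using substrate prepared at 1 μM and protein at 50 μg/ml, both pre-mix concentrations. Compound working solutions were 100, 10, 1 or 0.1 μM, and reactions ran 2 h at room temperature in the dark, read at 490/520 nm. Inhibition was graded A–D by concentration.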

[1] = system: A2780 cells (ovarian cancer cells); experiment: Cell viability of A2780 cells (Cell-titer Glo); assay type: cell-based; conditions: Homo sapiens
Procedure: (§1) In order to confirm the inhibitory effect of the compound represented by formula 1 according to the present invention on the growth of MCF7, MCF7-SP, A2780 or A2780-SP cells, the following experiment was performed, and the results are shown in Tables 4 and 5 below.
In addition, A2780 cells (ovarian cancer cells) were plated in a 96-well plate at the density of 3000 viable cells per well, and cultured in RPMI-1640 medium supplemented with 10% FBS and 1% penicillin/streptomycin.
(§2) On the next day of culture, the cells were treated with the compound of Examples 57, and 69 to 144, followed by culture for 3 days. Cell viability was evaluated by Cell-titer Glo (Promega, WC, USA), and luciferase activity was detected using a Tecan plate reader (Biocompare, USA).

[2] = system: A2780-SP cells (ovarian cancer stem cells); experiment: Sphere cell viability of A2780-SP cells (Cell-titer Glo); assay type: cell-based
Procedure: as §1
On the other hand, A2780-SP cells (ovarian cancer stem cells) were plated in an Ultra-Low Attachment round bottom 96-well plate (corning) at the density of 1,500 viable cells per well, and cultured in cancer stem cell medium. The cancer stem cell medium is composed of the neurobasal medium supplemented with 20 ng/ml of bFGF, 10 ng/ml of EGF, […] of amphotericin B, HEPES, Glutamax and B27.
as §2, with “for 8” for “for 3”, “days. The medium containing the compound was added thereto once again on the 4th day. Sphere cell” for “days. Cell”

[3] = Table 2, read-out: concentration at which Pin1 inhibitory activity was exhibited
[4] = concentration at which the Pin1 enzyme activity is inhibited, 2 hours at room temperature, fluorescence 490 nm/520 nm, read-out: Pin 1 inhibition
[5] = 72 h, cell viability, culture for 3 days, read-out: A2780
[6] = A2780, Table 5, read-out: A2780 cell concentration
[7] = 192 h, sphere cell viability, culture for 8 days, read-out: A2780-SP
[8] = Table 5, read-out: the concentration (second list of b710, cell line not named; matches A2780-SP column)

T1 sequence (Q13526 whole entry): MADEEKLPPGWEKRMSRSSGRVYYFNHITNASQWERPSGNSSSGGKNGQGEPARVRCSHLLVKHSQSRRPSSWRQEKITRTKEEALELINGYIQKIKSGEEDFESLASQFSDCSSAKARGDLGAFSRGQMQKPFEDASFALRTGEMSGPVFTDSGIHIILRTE

Row | Structure (SMILES) | IC50 (Pin1; [3]) [nM] | IC50 (Pin1; [4]) [nM] | IC50 [1, 5] [nM] | IC50 [1, 6] [nM] | IC50 [2, 7] [nM] | IC50 [2, 8] [nM]
1 | C[C@H]1CN(CCCOc2ccc(S(=O)(=O)NCCCc3c[nH]c4ccc(Cl)cc34)cc2)CCN1 [Example 109, (S)—N-(3-(5-chloro-1H-indol-3-yl)propyl)-4-(3-(3-methylpiperazin-1-yl)propoxy)benzenesulfonamide] | < 1000 | < 1000 | 1000 to 10000 | < 10000 | < 1000 | < 1000
2 | C[C@@H]1CN(CCCOc2ccc(S(=O)(=O)NCCCc3c[nH]c4ccc(Cl)cc34)cc2)C[C@H](C)N1 [Example 110, N-(3-(5-chloro-1H-indol-3-yl)propyl)-4-(3-((3S,5R)-3,5-dimethylpiperazin-1-yl)propoxy)benzenesulfonamide] | – | 1000 to 10000 | > 10000 | – | < 1000 | < 1000
3 | C[C@H]1CN(CCCOc2ccc(S(=O)(=O)NCCCc3c[nH]c4ccc(Cl)cc34)cc2)CCN1C [Example 111, (S)—N-(3-(5-chloro-1H-indol-3-yl)propyl)-4-(3-(3,4-dimethylpiperazin-1-yl)propoxy)benzenesulfonamide] | – | 1000 to 10000 | > 10000 | – | < 1000 | < 1000
4 | CN1CCN(CCCCc2ccc(S(=O)(=O)NCCCc3c[nH]c4ccc(Cl)cc34)cc2)CC1 [Example 112, N-(3-(5-chloro-1H-indol-3-yl)propyl)-4-(4-(4-methylpiperazin-1-yl)butyl)benzenesulfonamide] | < 1000 | < 1000 | > 10000 | – | < 1000 | < 1000
5 | CN1CCN(c2cc(Oc3ccc(S(=O)(=O)NCCCc4c[nH]c5ccc(Cl)cc45)cc3)cc(N3CCN(C)CC3)c2)CC1 [Example 130, 4-(3,5-bis(4-methylpiperazine-1-yl)phenoxy)-N-(3-(5-chloro-1H-indole-3-yl)propyl)benzenesulfonamide] | < 1000 | < 1000 | 1000 to 10000 | < 10000 | 1000 to 10000 | –
6 | CN1CCN(c2ccnc(Nc3ccc(S(=O)(=O)NCCCc4c[nH]c5ccc(Cl)cc45)cc3)c2)CC1 [Example 133, N-(3-(5-chloro-1H-indol-3-yl)propyl)-4-((4-(4-methylpiperazin-1-yl)pyridin-2-yl)amino)benzenesulfonamide] | < 1000 | < 1000 | > 10000 | – | 1000 to 10000 | –
7 | O=S(=O)(NCCCc1c[nH]c2ccc(Cl)cc12)c1ccc(Nc2cc(N3CCNCC3)ccn2)cc1 [Example 134, N-(3-(5-chloro-1H-indol-3-yl)propyl)-4-((4-(piperazin-1-yl)pyridin-2-yl)amino)benzenesulfonamide] | < 1000 | < 1000 | > 10000 | – | < 1000 | < 1000
8 | CN1CCN(c2cc(F)cc(Oc3ccc(S(=O)(=O)NCCCc4c[nH]c5ccc(Cl)cc45)cc3)c2)CC1 [Example 137, N-(3-(5-chloro-1H-indol-3-yl)propyl)-4-(3-fluoro-5-(4-methylpiperazin-1-yl)phenoxy)benzenesulfonamide] | < 1000 | < 1000 | > 10000 | – | 1000 to 10000 | –
9 | CN1CCN(c2cc(Br)cc(Oc3ccc(S(=O)(=O)NCCCc4c[nH]c5ccc(Cl)cc45)cc3)c2)CC1 [Example 138, N-(3-(5-chloro-1H-indole-3-yl)propyl)-4-(3-bromo-5-(4-methylpiperazine-1-yl)phenoxy)benzenesulfonamide] | < 1000 | < 1000 | > 10000 | – | 1000 to 10000 | –
10 | CS(=O)(=O)CCCOc1ccc(S(=O)(=O)NCCCc2c[nH]c3ccc(Cl)cc23)cc1 [Example 145, N-(3-(5-chloro-1H-indol-3-yl)propyl)-4-(3-(methylsulfonyl)propoxy)benzenesulfonamide] | < 1000 | < 1000 | > 10000 | – | > 10000 | –
11 | O=S(=O)(NCCCc1c[nH]c2ccc(Cl)cc12)c1cnc(NCCCN2CCNCC2)s1 [Example 146, N-(3-(5-chloro-1H-indole-3-yl)propyl)-2-((3-(piperazine-1-yl)propyl)amino)thiazole-5-sulfonamide] | < 1000 | < 1000 | > 10000 | – | 1000 to 10000 | –
12 | Cc1[nH]c2ccc(Cl)cc2c1CCCNS(=O)(=O)c1ccc(OCCCN2CCN(C)CC2)cc1 [Example 147, N-(3-(5-chloro-2-methyl-1H-indole-3-yl)propyl)-4-(3-(4-methylpiperazine-1-yl)propoxy)benzenesulfonamide] | < 1000 | < 1000 | > 10000 | – | > 10000 | –
13 | O=S(=O)(NCCCc1c[nH]c2ccc(Cl)cc12)c1ccc(CCCCn2ccnc2)cc1 [Example 148] | < 1000 | < 1000 | > 10000 | – | 1000 to 10000 | –
14 | CN1CCN(CCCOc2ccc(S(=O)(=O)Nc3ccccc3Cc3c[nH]c4ccc(Cl)cc34)cc2)CC1 [Example 149, N-(2-((5-chloro-1H-indole-3-yl)methyl)phenyl)-4-(3-(4-methylpiperazine-1-yl)propoxy)benzenesulfonamide] | < 1000 | < 1000 | > 10000 | – | > 10000 | –

Further lines, results first:

Row | IC50 (Pin1; [3]) [nM] | IC50 (Pin1; [4]) [nM] | IC50 [1, 5] [nM] | IC50 [1, 6] [nM] | IC50 [2, 7] [nM] | IC50 [2, 8] [nM] | Structure (SMILES)
15 | < 1000 | < 1000 | > 10000 | – | < 1000 | < 1000 | O=S(=O)(Nc1ccccc1Cc1c[nH]c2ccc(Cl)cc12)c1ccc(OCCCN2CCNCC2)cc1 [Example 150, N-(2-((5-chloro-1H-indol-3-yl)methyl)phenyl)-4-(3-(piperazin-1-yl)propoxy)benzenesulfonamide]
16 | < 1000 | < 1000 | > 10000 | – | < 1000 | < 1000 | CC(CCc1c[nH]c2ccc(Cl)cc12)NS(=O)(=O)c1ccc(OCCCN2CCN(C)CC2)cc1 (stereo not shown) [Example 151]
17 | < 1000 | < 1000 | > 10000 | – | < 1000 | < 1000 | CC(CCc1c[nH]c2ccc(Cl)cc12)NS(=O)(=O)c1ccc(OCCCN2CCNCC2)cc1 (stereo not shown) [Example 152, N-(4-(5-chloro-1H-indol-3-yl)butan-2-yl)-4-(3-(piperazin-1-yl)propoxy)benzenesulfonamide]
18 | < 1000 | < 1000 | 1000 to 10000 | < 10000 | < 1000 | < 1000 | O=S(=O)(NCCCc1c[nH]c2ccc(Br)cc12)c1ccc(OCCCN2CCNCC2)cc1 [Example 153, N-(3-(5-bromo-1H-indole-3-yl)propyl)-4-(3-(piperazine-1-yl)propoxy)benzenesulfonamide]
19 | < 1000 | < 1000 | 1000 to 10000 | < 10000 | < 1000 | < 1000 | CN1CCN(CCCOc2ccc(S(=O)(=O)NCCCc3c[nH]c4ccc(Br)cc34)cc2)CC1 [Example 154, N-(3-(5-bromo-1H-indol-3-yl)propyl)-4-(3-(4-methylpiperazin-1-yl)propoxy)benzenesulfonamide]
20 | – | 1000 to 10000 | > 10000 | – | < 1000 | < 1000 | Cc1[nH]c2ccc(Cl)cc2c1CCCNS(=O)(=O)c1ccc(OCCCN2CCNCC2)cc1 [Example 157, N-(3-(5-chloro-2-methyl-1H-indol-3-yl)propyl)-4-(3-(piperazin-1-yl)propoxy)benzenesulfonamide]
21 | < 1000 | < 1000 | > 10000 | – | < 1000 | < 1000 | CN1CCN(CCCOc2ccc(S(=O)(=O)NCCc3c[nH]c4ccc(Cl)cc34)cc2)CC1 [Example 158, N-(2-(5-chloro-1H-indol-3-yl)ethyl)-4-(3-(4-methylpiperazin-1-yl)propoxy)benzenesulfonamide]
22 | < 1000 | < 1000 | > 10000 | – | < 1000 | < 1000 | O=S(=O)(NCCc1c[nH]c2ccc(Cl)cc12)c1ccc(OCCCN2CCNCC2)cc1 [Example 159, N-(2-(5-chloro-1H-indol-3-yl)ethyl)-4-(3-(piperazin-1-yl)propoxy)benzenesulfonamide]
23 | < 1000 | < 1000 | > 10000 | – | > 10000 | – | O=S(=O)(NCCCc1c[nH]c2ccc(Cl)cc12)c1ccc(OCCCn2cncn2)cc1 [Example 160, 4-(3-(1H-1,2,4-triazol-1-yl)propoxy)-N-(3-(5-chloro-1H-indol-3-yl)propyl)benzenesulfonamide]

Reference: US12583818B2 (DAEGU-GYEONGBUK MEDICAL INNOVATION FOUNDATION, priority 2020, dated 2026)
